Measurements published in paper PMC10042540, “Targeting oncogenic KRasG13C with nucleotide-based covalent inhibitors” (eLife, 2023).

Assays:
Assay in all cases: Electroporation into HeLa cells, western blot quantification
Format in all cases: cell-based, human
[1] = system: pS6S235/236; details: for pS6 mean fold change: mean of cell lysates
How it was run: (§1)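 HeLa cells electroporated (2×35 ms, 1000 V) with 0–300 µg recombinant full-length KRas WT or G13C constructs, washed, then recovered for 24 h at 37 °C. Lysates (10 µg protein) analysed by SDS-PAGE and fluorescent western blotting, with protein levels quantified from blot signal.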

[2] = system: tErk; details: for tErk mean fold change: mean of cell lysates
How it was run: as §1

[3] = system: pErkT202/Y204; details: for pErk mean fold change: mean of cell lysates
How it was run: as §1

[4] = system: pcRafS338; details: for pcRaf mean fold change: mean of cell lysates
How it was run: as §1

Substance “KRasG13C-edaGDP: KRasG13C covalently locked with edaGDP at Cys13” has a pS6 fold change ([1]; 50 µg, Cell lysate 1) of 0.80, a pS6 fold change ([1]; 50 µg, Cell lysate 2) of 1.31 and a pS6 fold change ([1]; 50 µg, Cell lysate 3) of 0.76. For the same substance, the “pS6 mean fold change” value ([1]; 50 µg) was 0.96, the pS6 fold change ([1]; 100 µg, Cell lysate 1) was 0.91 and the pS6 fold change ([1]; 100 µg, Cell lysate 2) was 1.13. The pS6 fold change ([1]; 100 µg, Cell lysate 3) was 0.75, the “pS6 mean fold change” value ([1]; 100 µg) was 0.93 and the pS6 fold change ([1]; 200 µg, Cell lysate 1) was 1.23. The pS6 fold change ([1]; 200 µg, Cell lysate 2) was 1.03, the pS6 fold change ([1]; 200 µg, Cell lysate 3) was 0.88 and the “pS6 mean fold change” value ([1]; 200 µg) was 1.05. It also gave a pS6 fold change ([1]; 300 µg, Cell lysate 1) of 0.98, a pS6 fold change ([1]; 300 µg, Cell lysate 2) of 0.98 and a pS6 fold change ([1]; 300 µg, Cell lysate 3) of 0.76. For the same substance, the “pS6 mean fold change” value ([1]; 300 µg) was 0.91, the tErk fold change ([2]; 50 µg, Cell lysate 1) was 0.84 and the tErk fold change ([2]; 50 µg, Cell lysate 2) was 2.08. The tErk fold change ([2]; 50 µg, Cell lysate 3) was 0.64, the “tErk mean fold change” value ([2]; 50 µg) was 1.19 and the tErk fold change ([2]; 100 µg, Cell lysate 1) was 0.91. The tErk fold change ([2]; 100 µg, Cell lysate 2) was 1.86, the tErk fold change ([2]; 100 µg, Cell lysate 3) was 0.78 and the “tErk mean fold change” value ([2]; 100 µg) was 1.18. The tErk fold change ([2]; 200 µg, Cell lysate 1) was 1.12, the tErk fold change ([2]; 200 µg, Cell lysate 2) was 1.76 and the tErk fold change ([2]; 200 µg, Cell lysate 3) was 0.74. For the same substance, the “tErk mean fold change” value ([2]; 200 µg) was 1.21, the tErk fold change ([2]; 300 µg, Cell lysate 1) was 1.26 and the tErk fold change ([2]; 300 µg, Cell lysate 2) was 1.23. For the same substance, the tErk fold change ([2]; 300 µg, Cell lysate 3) was 0.72, the “tErk mean fold change” value ([2]; 300 µg) was 1.07 and the pErk fold change ([3]; 50 µg, Cell lysate 1) was 0.82. For the same substance, the pErk fold change ([3]; 50 µg, Cell lysate 2) was 0.70, the pErk fold change ([3]; 50 µg, Cell lysate 3) was 0.80 and the “pErk mean fold change” value ([3]; 50 µg) was 0.77. It also gave a pErk fold change ([3]; 100 µg, Cell lysate 1) of 1.10, a pErk fold change ([3]; 100 µg, Cell lysate 2) of 0.77 and a pErk fold change ([3]; 100 µg, Cell lysate 3) of 0.86. For the same substance, the “pErk mean fold change” value ([3]; 100 µg) was 0.91, the pErk fold change ([3]; 200 µg, Cell lysate 1) was 2.08 and the pErk fold change ([3]; 200 µg, Cell lysate 2) was 0.84. The pErk fold change ([3]; 200 µg, Cell lysate 3) was 1.10, the “pErk mean fold change” value ([3]; 200 µg) was 1.34 and the pErk fold change ([3]; 300 µg, Cell lysate 1) was 2.38. For the same substance, the pErk fold change ([3]; 300 µg, Cell lysate 2) was 0.86, the pErk fold change ([3]; 300 µg, Cell lysate 3) was 1.58 and the “pErk mean fold change” value ([3]; 300 µg) was 1.61. The pcRaf fold change ([4]; 50 µg, Cell lysate 1) was 0.75, the pcRaf fold change ([4]; 50 µg, Cell lysate 2) was 1.33 and the pcRaf fold change ([4]; 50 µg, Cell lysate 3) was 0.84. For the same substance, the “pcRaf mean fold change” value ([4]; 50 µg) was 0.97, the pcRaf fold change ([4]; 100 µg, Cell lysate 1) was 0.89 and the pcRaf fold change ([4]; 100 µg, Cell lysate 2) was 0.78. The pcRaf fold change ([4]; 100 µg, Cell lysate 3) was 1.40, the “pcRaf mean fold change” value ([4]; 100 µg) was 1.02 and the pcRaf fold change ([4]; 200 µg, Cell lysate 1) was 0.74. The pcRaf fold change ([4]; 200 µg, Cell lysate 2) was 0.88, the pcRaf fold change ([4]; 200 µg, Cell lysate 3) was 1.21 and the “pcRaf mean fold change” value ([4]; 200 µg) was 0.94. For the same substance, the pcRaf fold change ([4]; 300 µg, Cell lysate 1) was 0.57, the pcRaf fold change ([4]; 300 µg, Cell lysate 2) was 0.97 and the pcRaf fold change ([4]; 300 µg, Cell lysate 3) was 1.13. The “pcRaf mean fold change” value ([4]; 300 µg) was 0.89.
